Assay results reported in patent US10294236B2, “Compounds as rearranged during transfection (RET) inhibitors” (GLAXOSMITHKLINE INTELLECTUAL PROPERTY DEVELOPMENT LIMITED, priority 2014, dated 2019).
Structures can show the parent of a compound that is named as a salt.

Target: T1, Human RET kinase cytoplasmic domain (Homo sapiens, UniProt P07949)
T1 construct: made in house
T1 sequence (P07949 658-1114): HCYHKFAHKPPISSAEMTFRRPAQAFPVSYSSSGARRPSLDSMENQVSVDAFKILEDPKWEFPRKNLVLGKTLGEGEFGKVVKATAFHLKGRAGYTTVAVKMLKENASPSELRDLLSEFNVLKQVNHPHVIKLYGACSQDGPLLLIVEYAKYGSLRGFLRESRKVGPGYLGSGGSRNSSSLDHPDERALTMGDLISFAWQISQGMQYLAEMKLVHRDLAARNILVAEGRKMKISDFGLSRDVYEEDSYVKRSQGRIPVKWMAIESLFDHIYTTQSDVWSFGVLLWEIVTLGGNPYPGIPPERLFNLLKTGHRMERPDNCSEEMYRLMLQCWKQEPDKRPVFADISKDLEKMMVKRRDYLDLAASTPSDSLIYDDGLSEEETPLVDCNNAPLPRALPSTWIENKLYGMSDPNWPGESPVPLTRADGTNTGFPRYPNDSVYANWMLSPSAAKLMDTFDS
Experiment: RET kinase enzymatic assay
Type: biochemical
Summary of the method: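 GST-RET, 0.2 nM in 2× enzyme mix (HEPES, CHAPS, BSA, DTT), preincubated with inhibitor 30 min at 23 °C. Reaction for 1 h at 23 °C after adding 2× substrate mix: 20 μM ATP, 20 mM MgCl2, 1 μM biotinylated peptide. Single wells per concentration; IC50 from sigmoidal dose-response fit.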

CCOc1cc(-c2ccc(NC(=O)Nc3ccc(OC4(C)CCN(C)C4)c(C(F)(F)F)c3)c(F)c2)c[nH]c1=O (stereo not drawn) [Example 144]
IC50: < 100 nM

CCOc1cc(-c2ccc(NC(=O)Nc3ccc(OCC(C)O)c(C(F)(F)F)c3)c(F)c2)c[nH]c1=O (stereo not drawn) [Example 145]
IC50: < 100 nM

CCOc1cc(-c2ccc(NC(=O)Nc3ccc(Cc4cnn(C)c4)c(C(F)(F)F)c3)c(F)c2)c[nH]c1=O [Example 146]
IC50: < 100 nM

CC1(Oc2ccc(NC(=O)Nc3ccc(-c4ccc(=O)[nH]c4)cc3F)cc2C(F)(F)F)COC1 [Example 147]
IC50: < 100 nM

CCOc1cc(-c2ccc(NC(=O)Nc3cnc(OC4(C)COC4)c(C(F)(F)F)c3)c(F)c2)c[nH]c1=O [Example 148]
IC50: < 100 nM

CCOc1cc(-c2ccc(NC(=O)Nc3ccc(OC4(C)CCC4)c(C(F)(F)F)c3)c(F)c2)c[nH]c1=O [Example 149]
IC50: < 100 nM

CCOc1cc(-c2ccc(NC(=O)Nc3ccc(OC4(C)CS(=O)(=O)C4)c(C(F)(F)F)c3)c(F)c2)c[nH]c1=O [Example 150]
IC50: < 100 nM

CCOCc1ccc(NC(=O)Nc2ccc(-c3c[nH]c(=O)c(OCC)c3)cc2F)cc1C(F)(F)F [Example 151]
IC50: < 100 nM

CCOc1cc(-c2ccc(NC(=O)Nc3ccc(Cl)c(C(F)(F)F)c3)c(F)c2)c[nH]c1=O [Example 152]
IC50: < 100 nM

CCOc1cc(F)c(C(F)(F)F)cc1NC(=O)Nc1ccc(-c2c[nH]c(=O)c(OCC)c2)cc1F [Example 153]
IC50: < 100 nM

CCOc1cc(-c2ccc(NC(=O)Nc3ccc(CN4CC[C@H](F)C4)c(C(F)(F)F)c3)c(F)c2)c[nH]c1=O [Example 154]
IC50: < 100 nM

O=C(Nc1ccc(-c2c[nH]c(=O)c3occc23)cc1F)Nc1cc(C(F)(F)F)ccc1F [Example 155]
IC50: < 100 nM

CCOc1cc(-c2ccc(NC(=O)Nc3ccc(F)c(C(F)(F)F)c3)c(F)c2)c[nH]c1=O [Example 156]
IC50: < 100 nM

CC1(Oc2ccc(NC(=O)Nc3ccc(-c4ccc(=O)[nH]c4)cc3)cc2C(F)(F)F)COC1 [Example 157]
IC50: < 100 nM

CCOc1cc(-c2ccc(NC(=O)Nc3ccc(C#N)c(C(F)(F)F)c3)c(F)c2)c[nH]c1=O [Example 158]
IC50: < 100 nM

CCOc1cc(-c2ccc(NC(=O)Nc3ccc(OC(C)(C)COC)c(C(F)(F)F)c3)c(F)c2)c[nH]c1=O [Example 159]
IC50: < 100 nM

CCOc1cc(-c2ccc(NC(=O)Nc3ccc(OC(C)C)c(C(F)F)c3)cc2F)c[nH]c1=O [Example 160]
IC50: < 100 nM

CCOc1cc(-c2ccc(NC(=O)Nc3ccc(OC4CC(F)(F)C4)c(C(F)(F)F)c3)c(F)c2)c[nH]c1=O [Example 161]
IC50: < 100 nM

CCOc1cc(-c2ccc(NC(=O)Nc3ccc(C(N)=O)c(C(F)(F)F)c3)c(F)c2)c[nH]c1=O [Example 162]
IC50: < 100 nM

CC(C)Oc1ccc(NC(=O)Nc2ccc(-c3ccc(=O)[nH]c3)cc2)cc1C(F)(F)F [Example 163]
IC50: < 100 nM

O=C(Nc1ccc(OCCO)c(C(F)(F)F)c1)Nc1ccc(-c2c[nH]c(=O)c(OC(F)F)c2)cc1F [Example 164]
IC50: < 100 nM

CCOc1cc(-c2ccc(NC(=O)Nc3ccc(CCN(C)C)c(C(F)(F)F)c3)c(F)c2)c[nH]c1=O [Example 165]
IC50: < 100 nM

CCOc1cc(-c2ccc(NC(=O)Nc3ccc(OC4(C)COC4)c(C(F)(F)F)c3F)c(F)c2)c[nH]c1=O [Example 166]
IC50: < 100 nM

CCOc1cc(-c2ccc(NC(=O)Nc3ccc(OC4(C)CCOC4)c(C(F)(F)F)c3)c(F)c2)c[nH]c1=O (stereo not drawn) [Example 167]
IC50: < 100 nM

Cc1cc(=O)[nH]cc1-c1ccc(NC(=O)Nc2ccc(OC3(C)COC3)c(C(F)(F)F)c2)c(F)c1 [Example 168]
IC50: < 100 nM

CC1(Oc2ccc(NC(=O)Nc3ccc(-c4ccc(=O)[nH]c4)cc3)cc2C(F)F)COC1 [Example 169]
IC50: < 100 nM

CCOc1cc(-c2ccc(NC(=O)Nc3ccc(Cl)c(Cl)c3)c(F)c2)c[nH]c1=O [Example 170]
IC50: < 100 nM

CCOc1cc(-c2ncc(NC(=O)Nc3cc(C(F)(F)F)c(CN4CCN(CCO)CC4)cc3F)c(C)n2)c[nH]c1=O [Example 171, 1-(2-(5-Ethoxy-6-oxo-1,6-dihydropyridin-3-yl)-4-methylpyrimidin-5-yl)-3-(2-fluoro-4-((4-(2-hydroxyethyl)piperazin-1-yl)methyl)-5-(trifluoromethyl)phenyl)urea]
IC50: < 100 nM

CCN1CCN(Cc2cc(F)c(NC(=O)Nc3cnc(-c4c[nH]c(=O)c(OCCO)c4)nc3C)cc2C(F)(F)F)CC1 [Example 172, 1-(4-((4-Ethylpiperazin-1-yl)methyl)-2-fluoro-5-(trifluoromethyl)phenyl)-3-(2-(5-(2-hydroxyethoxy)-6-oxo-1,6-dihydropyridin-3-yl)-4-methylpyrimidin-5-yl)urea]
IC50: < 100 nM

Cc1nc(-c2c[nH]c(=O)c(OCCO)c2)ncc1NC(=O)Nc1cc(C(F)(F)F)c(CN2CCN(CCO)CC2)cc1F [Example 173, 1-(2-Fluoro-4-((4-(2-hydroxyethyl)piperazin-1-yl)methyl)-5-(trifluoromethyl)phenyl)-3-(2-(5-(2-hydroxyethoxy)-6-oxo-1,6-dihydropyridin-3-yl)-4-methylpyrimidin-5-yl)urea]
IC50: < 100 nM

CCOc1cc(-c2ncc(NC(=O)Nc3cc(C(F)(F)F)cc(S(=O)(=O)NCCN(C)C)c3)c(C)n2)c[nH]c1=O [Example 174, N-(2-(dimethylamino)ethyl)-3-(3-(2-(5-ethoxy-6-oxo-1,6-dihydropyridin-3-yl)-4-methylpyrimidin-5-yl)ureido)-5-(trifluoromethyl)benzenesulfonamide]
IC50: < 100 nM

CCOc1cc(-c2ncc(NC(=O)Nc3ccc(C(C)N)c(C(F)(F)F)c3)c(C)n2)c[nH]c1=O (stereo not drawn) [Example 175, 1-(4-(1-Aminoethyl)-3-(trifluoromethyl)phenyl)-3-(2-(5-ethoxy-6-oxo-1,6-dihydropyridin-3-yl)-4-methylpyrimidin-5-yl)urea]
IC50: < 100 nM

CCOc1cc(-c2ncc(NC(=O)Nc3ccc(C(C)N(C)C)c(C(F)(F)F)c3)c(C)n2)c[nH]c1=O (stereo not drawn) [Example 176, 1-(4-(1-(Dimethylamino)ethyl)-3-(trifluoromethyl)phenyl)-3-(2-(5-ethoxy-6-oxo-1,6-dihydropyridin-3-yl)-4-methylpyrimidin-5-yl)urea]
IC50: < 100 nM

CCOc1cc(-c2ncc(NC(=O)Nc3ccc(CCN4CCCC4)c(C(F)(F)F)c3)c(C)n2)c[nH]c1=O [Example 177, 1-(2-(5-Ethoxy-6-oxo-1,6-dihydropyridin-3-yl)-4-methylpyrimidin-5-yl)-3-(4-(2-(pyrrolidin-1-yl)ethyl)-3-(trifluoromethyl)phenyl)urea]
IC50: < 100 nM

CCOc1cc(-c2ncc(NC(=O)Nc3cc(OCCN(C)C)cc(C(F)(F)F)c3)cn2)c[nH]c1=O [Example 178, 1-(3-(2-(dimethylamino)ethoxy)-5-(trifluoromethyl)phenyl)-3-(2-(5-ethoxy-6-oxo-1,6-dihydropyridin-3-yl)pyrimidin-5-yl)urea dihydrochloride]
IC50: < 100 nM

CCOc1cc(-c2ncc(NC(=O)Nc3ccc(CN(C)C)c(C(F)(F)F)c3)cn2)c[nH]c1=O [Example 179, 1-(4-((Dimethylamino)methyl)-3-(trifluoromethyl)phenyl)-3-(2-(5-ethoxy-6-oxo-1,6-dihydropyridin-3-yl)pyrimidin-5-yl)urea]
IC50: < 100 nM
